Measured values: US20050233457A1, “Recombining viral vectors for the tetracycline-regulated expression of genes” (priority 2002, published 2005)

Tested on: HT29 colon carcinoma cells
Assay: Luciferase expression in lysates of adenovirally infected HT29 cells
Type: cell-based, human
Conditions: HT29, Ad.3r-luc m.o.i. 30, 24 hours
Description: […], Colo205, SkCO-1, AsPc-1, HepG2, MCF-7, BT-20, HeLa, RT4 and U266 cells were seeded in six and twelve (U266) vial-plates at a concentration of 1×10^6 cells per cavity for 6 hours before transfection. The larger HeLa, RT-4 and 293 cells were seeded in a concentration of 5×10^5 cells per vial. U266 myeloma cells were allowed to grow in suspension culture and infected. Purified viral particles were diluted in media without supplementation and the cells were exposed to 500 μl of the suitable virus dilution per vial for 1 hour. After removal of the infectious supernatant, complete media which had been supplemented with different concentrations of doxycycline, were added. The media were changed every 24 hours.
24 hours after infection with Ad.CMV-luc or Ad.3r-luc, the cells were harvested with 150 μl of cell culture lysis reagent according to the manufacturer's (Promega) instructions. The luciferase activity in 20 μl of cell lysate was measured using a Bertold LB9507 luminometer and luciferase assay substrate (Promega). […] The protein concentration was determined using the DC protein assay kit (BioRad, Hercules, Calif.).
Human colon carcinoma cells HT29 are extremely receptive for adenoviral transduction, as has been shown previously (A. Block et al. Cancer Gene Therapy 7 (2000) 438-445). […] The luciferase activity was determined in cell lysates in relation to the dissolved cell protein. […]

## C[C@H]1c2cccc(O)c2C(=O)C2=C(O)[C@]3(O)C(=O)C(C(N)=O)=C(O)[C@@H](N(C)C)[C@@H]3[C@@H](O)[C@@H]21 [doxycycline]
  doxycycline concentration leading to a significant reduction in gene expression: 100 pg/mL
